The term AC50 denotes the concentration giving half of the maximal activity seen.

Our source for the AC50 values is US20250262201A1, “COMPOUNDS AND METHODS USEFUL FOR STABILIZING PHENYLALANINE HYDROXYLASE MUTATIONS” (Agios Pharmaceuticals, Inc., priority 2022, published 2025).

Where only a bound is given, the exact number is not on record here.

The first assay concerns the target T1, human PAH with the R408W mutation (Homo sapiens, UniProt P00439, R408W).
T1 construct: expressed in transfected cells
T1 sequence (P00439 1-452 R408W): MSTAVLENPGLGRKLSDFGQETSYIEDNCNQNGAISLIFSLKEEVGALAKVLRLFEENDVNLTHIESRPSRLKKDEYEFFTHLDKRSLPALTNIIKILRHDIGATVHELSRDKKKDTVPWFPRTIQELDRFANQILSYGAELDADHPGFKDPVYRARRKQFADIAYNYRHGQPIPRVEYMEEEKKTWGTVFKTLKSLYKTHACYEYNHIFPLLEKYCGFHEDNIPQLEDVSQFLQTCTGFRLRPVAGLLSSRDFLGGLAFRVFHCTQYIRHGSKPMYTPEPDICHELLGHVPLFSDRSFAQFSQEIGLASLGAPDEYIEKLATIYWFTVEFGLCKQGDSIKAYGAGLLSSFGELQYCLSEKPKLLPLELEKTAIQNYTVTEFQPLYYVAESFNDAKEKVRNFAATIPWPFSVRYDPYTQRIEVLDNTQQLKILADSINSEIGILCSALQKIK
Put plainly: Cell Based Phenylalanine Flux Assay. As to conditions: A375 R408W cells, 24 hrs with compound, then 20 μM sepiapterin and 800 μM 13C9,15N-Phenylalanine for 4 hours; 13C-Tyrosine by LC-MS; average where tested multiple times; read-out: AC50.
For `O=C(C1CN(c2ccccn2)C1)N1CCc2[nH]cnc2C1c1cc2ccccc2cn1` (single isomer, unassigned), the AC50 is 1 to 5 µM.
In the case of `CC(C)(O)c1ncc(C(=O)N2CCc3[nH]cnc3[C@H]2c2cn3ccccc3n2)o1` (single isomer, unassigned), the AC50 is over 5 µM.
Same read-out and setting: in the case of `COCc1ncc(C(=O)N2CCc3[nH]cnc3[C@H]2c2cn3ccccc3n2)s1` (single isomer, unassigned) it was over 5 µM; in that of `C[C@H]1CN(c2nnc(-c3ccccn3)o2)[C@@H](c2cc3ccccc3cn2)c2nc[nH]c21` (single isomer, unassigned), over 5 µM.

The same assay, now with this note: A375 cells expressing human R408W PAH; 24 hrs compound incubation; 13C-Tyrosine by LC-MS; average where tested multiple times; read-out: AC50.
Regarding `Cc1nc(C(C)(C)O)oc1C(=O)N1CCc2[nH]cnc2[C@@H]1c1ccc2ccccc2n1` (single isomer, unassigned) [Example 14], the AC50 was over 5 µM.
Still for that read-out and setting: in the case of `O=C(c1nnc(-c2cnn(CC(F)(F)F)c2)o1)N1CCc2[nH]cnc2[C@H]1c1ccc2ccccc2n1` (single isomer, unassigned) [Example 67] it was 0.5 to 1 µM; in that of `O=C(c1nnc(-c2cnn(CC(F)(F)F)c2)o1)N1CCc2[nH]cnc2[C@@H]1c1ccc2ccccc2n1` (single isomer, unassigned) [Example 68], over 5 µM.
For `CC(O)c1nc(Br)c(C(=O)N2CCc3[nH]cnc3[C@@H]2c2ccc3ccccc3n2)o1` (single isomer, unassigned) [Example 131], the AC50 was 1 to 5 µM.
As to `CC(O)c1nc(Br)c(C(=O)N2CCc3[nH]cnc3[C@@H]2c2ccc3ccccc3n2)o1` (single isomer, unassigned) [Example 132], the AC50 was in the range of 1 to 5 µM.
The same measure, in the same setting: in the case of `CC(O)c1nc(Br)c(C(=O)N2CCc3[nH]cnc3[C@H]2c2ccc3ccccc3n2)o1` (single isomer, unassigned) [Example 133] it was under 0.5 µM.
Take `CC(O)c1nc(Br)c(C(=O)N2CCc3[nH]cnc3[C@H]2c2ccc3ccccc3n2)o1` (single isomer, unassigned) [Example 134]: the AC50 was under 0.5 µM.
Regarding `CC(O)c1nc(Cl)c(C(=O)N2CCc3[nH]cnc3[C@@H]2c2ccc3ccccc3n2)o1` (single isomer, unassigned) [Example 135], the AC50 is over 5 µM.
For `CC(O)c1nc(Cl)c(C(=O)N2CCc3[nH]cnc3[C@@H]2c2ccc3ccccc3n2)o1` (single isomer, unassigned) [Example 136], the AC50 was 1 to 5 µM.
Still for that read-out and setting: in the case of `CC(O)c1nc(Cl)c(C(=O)N2CCc3[nH]cnc3[C@H]2c2ccc3ccccc3n2)o1` (single isomer, unassigned) [Example 137] it was under 0.5 µM; in that of `CC(O)c1nc(Cl)c(C(=O)N2CCc3[nH]cnc3[C@H]2c2ccc3ccccc3n2)o1` (single isomer, unassigned) [Example 138], under 0.5 µM; in that of `CC(F)(F)c1ncc(C(=O)N2CCc3[nH]cnc3[C@@H]2c2cn3ccccc3n2)s1` (single isomer, unassigned) [Example 235], over 5 µM.
`CC(F)(F)c1ncc(C(=O)N2CCc3[nH]cnc3[C@H]2c2cn3ccccc3n2)s1` (single isomer, unassigned) [Example 236]: the AC50 fell in the range of 1 to 5 µM.
Same read-out and setting: in the case of `O=C(c1oc(-c2ccccn2)nc1C1CC1)N1CCCc2[nH]cnc2[C@H]1c1cc2ccccc2cn1` (single isomer, unassigned) [Example 379] it was 1 to 5 µM; in that of `O=C(c1oc(-c2ccccn2)nc1C1CC1)N1CCCc2[nH]cnc2[C@@H]1c1cc2ccccc2cn1` (single isomer, unassigned) [Example 380], over 5 µM; in that of `C[C@H]1CN(C(=O)c2nnc(-c3ccccn3)o2)[C@H](c2cc3ccccc3cn2)c2nc[nH]c21` (single isomer, unassigned) [Example 385], 0.5 to 1 µM.
Same read-out and setting: to `C[C@H]1CN(C(=O)c2nnc(-c3ccccn3)o2)[C@@H](c2cc3ccccc3cn2)c2nc[nH]c21` (single isomer, unassigned) [Example 386] belongs over 5 µM; to `C[C@@H]1CN(C(=O)c2nnc(-c3ccccn3)o2)[C@H](c2cc3ccccc3cn2)c2nc[nH]c21` (single isomer, unassigned) [Example 388], 0.5 to 1 µM.
